Key:
[1] = target: T1, MLLT1 (Homo sapiens, UniProt Q03111); assay: MLLT1 degradation assay in MV4-11 cells (JESS chemiluminescent detection), three concentrations, 24 h; type: cell-based; settings: with respect to DMSO control
T1 construct: host or cells: MV4-11
T1 sequence (Q03111 1-559): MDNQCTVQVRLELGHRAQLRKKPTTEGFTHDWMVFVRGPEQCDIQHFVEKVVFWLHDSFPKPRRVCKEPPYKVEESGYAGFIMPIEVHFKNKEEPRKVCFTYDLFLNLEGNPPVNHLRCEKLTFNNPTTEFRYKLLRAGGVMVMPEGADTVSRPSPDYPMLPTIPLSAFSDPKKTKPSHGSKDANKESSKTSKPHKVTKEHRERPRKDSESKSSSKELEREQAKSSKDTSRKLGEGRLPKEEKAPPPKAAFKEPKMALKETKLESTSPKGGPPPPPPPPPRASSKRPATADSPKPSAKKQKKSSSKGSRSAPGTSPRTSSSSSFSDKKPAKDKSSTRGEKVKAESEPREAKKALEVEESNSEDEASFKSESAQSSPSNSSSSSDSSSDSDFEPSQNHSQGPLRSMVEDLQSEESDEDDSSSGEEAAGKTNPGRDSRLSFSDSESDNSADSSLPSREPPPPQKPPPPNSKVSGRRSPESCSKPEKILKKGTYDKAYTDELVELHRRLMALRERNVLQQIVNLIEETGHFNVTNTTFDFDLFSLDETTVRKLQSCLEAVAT
In short: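 Read-out is % MLLT1 degradation versus DMSO, from band peak areas on a JESS chemiluminescent system. Cells (MV4-11) were exposed for 24 h at 37° C to three compound levels, 10, 100 and 1000 nM, in 0.1% DMSO.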

[2] = tested on: MV4-11 cells; assay: MV4-11 cellular proliferative assay, Assay Format B (CTG 2.0, 168 h); type: cell-based; settings: Homo sapiens, 168 h (7 days), CTG 2.0, read-out: IC50 (MV4-11 cellular proliferative assay, Assay format B)
In short: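 Viability read by CellTiter-Glo 2.0 luminescence after 7-day (168 h) compound exposure of MV4-11 cells in IMDM/10% FBS. Ten 3-fold concentrations starting at 1 uM or 100 nM, 0.3% final DMSO; curves normalised to DMSO control, four-parameter fit.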

Structure (SMILES) | MLLT1% Degradation @ 0.01 μM [1] | MLLT1% Degradation @ 0.1 μM [1] | IC50 [2] [nM] | MLLT1% Degradation @ 1 μM [1]
CN1CCC[C@@H]1c1cc2cnc(NC(=O)c3cnc(N4CCC(C#Cc5cccc6c5CN(C5CCC(=O)NC5=O)C6=O)CC4)nc3)cc2[nH]1 (stereo partly drawn) [Example 65, 2-(4-((2-(2,6-dioxopiperidin-3-yl)-1-oxoisoindolin-4-yl)ethynyl)piperidin-1-yl)-N-(2-((R)-1-methylpyrrolidin-2-yl)-1H-pyrrolo[3,2-c]pyridin-6-yl)pyrimidine-5-carboxamide] | B (Category B: 50% ≤ B < 75% degradation) | B (Category B: 50% ≤ B < 75% degradation) | ≤ 100 | B (Category B: 50% ≤ B < 75% degradation)
CN1CCC[C@@H]1c1cc2cnc(NC(=O)c3ccc(N4CCC(C5CCN(c6cccc7c6CN(C6CCC(=O)NC6=O)C7=O)CC5)CC4)nc3)cc2[nH]1 (stereo partly drawn) [Example 75, 6-(1′-(2-(2,6-dioxopiperidin-3-yl)-1-oxoisoindolin-4-yl)-[4,4′-bipiperidin]-1-yl)-N-(2-((R)-1-methylpyrrolidin-2-yl)-1H-pyrrolo[3,2-c]pyridin-6-yl)nicotinamide] | A (Category A: A ≥ 75% degradation) | A (Category A: A ≥ 75% degradation) | ≤ 100 | A (Category A: A ≥ 75% degradation)
CN1CCC[C@@H]1c1cc2cnc(NC(=O)c3ccc(OCCC4CCN(c5cccc6c5C(=O)N(C5CCC(=O)NC5=O)C6=O)CC4)cc3)cc2[nH]1 (stereo partly drawn) [Example 82, 4-(2-(1-(2-(2,6-dioxopiperidin-3-yl)-1,3-dioxoisoindolin-4-yl)piperidin-4-yl)ethoxy)-N-(2-((R)-1-methylpyrrolidin-2-yl)-1H-pyrrolo[3,2-c]pyridin-6-yl)benzamide] | B (Category B: 50% ≤ B < 75% degradation) | A (Category A: A ≥ 75% degradation) | ≤ 100 | A (Category A: A ≥ 75% degradation)
CN1CCC[C@@H]1c1cc2cnc(NC(=O)c3ccc(N4CCC(OCc5ccc(-c6cccc7c6CN(C6CCC(=O)NC6=O)C7=O)cc5)CC4)cc3)cc2[nH]1 (stereo partly drawn) [Example 85, 4-(4-((4-(2-(2,6-dioxopiperidin-3-yl)-1-oxoisoindolin-4-yl)benzyl)oxy)piperidin-1-yl)-N-(2-((R)-1-methylpyrrolidin-2-yl)-1H-pyrrolo[3,2-c]pyridin-6-yl)benzamide] | C (Category C: 25% ≤ C < 50% degradation) | A (Category A: A ≥ 75% degradation) | ≤ 100 | B (Category B: 50% ≤ B < 75% degradation)
CN1CC2(CC2)CC1c1cc2cnc(NC(=O)c3ccc(CCCCC#Cc4cccc5c4CN(C4CCC(=O)NC4=O)C5=O)nc3)cc2[nH]1 (stereo not drawn) [Example 86, 6-(6-(2-(2,6-dioxopiperidin-3-yl)-1-oxoisoindolin-4-yl)hex-5-yn-1-yl)-N-(2-((rel-R)-5-methyl-5-azaspiro[2.4]heptan-6-yl)-1H-pyrrolo[3,2-c]pyridin-6-yl)nicotinamide] | A (Category A: A ≥ 75% degradation) | A (Category A: A ≥ 75% degradation) | ≤ 100 | B (Category B: 50% ≤ B < 75% degradation)
CN1CCC[C@@H]1c1cc2cnc(NC(=O)c3ccc(N4CCN(C(=O)CC5CCN(c6cccc7c6CN(C6CCC(=O)NC6=O)C7=O)CC5)CC4)cc3)cc2[nH]1 (stereo partly drawn) [Example 88, 4-(4-(2-(1-(2-(2,6-dioxopiperidin-3-yl)-1-oxoisoindolin-4-yl)piperidin-4-yl)acetyl)piperazin-1-yl)-N-(2-((R)-1-methylpyrrolidin-2-yl)-1H-pyrrolo[3,2-c]pyridin-6-yl)benzamide] | B (Category B: 50% ≤ B < 75% degradation) | A (Category A: A ≥ 75% degradation) | ≤ 100 | B (Category B: 50% ≤ B < 75% degradation)
CN1CCC[C@@H]1c1cc2cnc(NC(=O)c3cnc(N4CCN(CC#Cc5cccc6c5CN(C5CCC(=O)NC5=O)C6=O)CC4)nc3)cc2[nH]1 (stereo partly drawn) [Example 89, 2-(4-(3-(2-(2,6-dioxopiperidin-3-yl)-1-oxoisoindolin-4-yl)prop-2-yn-1-yl)piperazin-1-yl)-N-(2-((R)-1-methylpyrrolidin-2-yl)-1H-pyrrolo[3,2-c]pyridin-6-yl)pyrimidine-5-carboxamide] | A (Category A: A ≥ 75% degradation) | A (Category A: A ≥ 75% degradation) | ≤ 100 | C (Category C: 25% ≤ C < 50% degradation)
CN1CCC[C@@H]1c1cc2cnc(NC(=O)c3ccc(CCCC#Cc4ccc(F)c5c4CN(C4CCC(=O)NC4=O)C5=O)cc3)cc2[nH]1 (stereo partly drawn) [Example 91, 4-(5-(2-(2,6-dioxopiperidin-3-yl)-7-fluoro-1-oxoisoindolin-4-yl)pent-4-yn-1-yl)-N-(2-((R)-1-methylpyrrolidin-2-yl)-1H-pyrrolo[3,2-c]pyridin-6-yl)benzamide] | A (Category A: A ≥ 75% degradation) | A (Category A: A ≥ 75% degradation) | ≤ 100 | A (Category A: A ≥ 75% degradation)
CN1CCC[C@@H]1c1cc2cnc(NC(=O)c3ccc(CCCC#Cc4cccc5c4CN(C4CCC(=O)NC4=O)C5=O)c(F)c3)cc2[nH]1 (stereo partly drawn) [Example 93, 4-(5-(2-(2,6-dioxopiperidin-3-yl)-1-oxoisoindolin-4-yl)pent-4-yn-1-yl)-3-fluoro-N-(2-((R)-1-methylpyrrolidin-2-yl)-1H-pyrrolo[3,2-c]pyridin-6-yl)benzamide] | A (Category A: A ≥ 75% degradation) | A (Category A: A ≥ 75% degradation) | ≤ 100 | A (Category A: A ≥ 75% degradation)
CN1CCC[C@@H]1c1cc2cnc(NC(=O)c3ccc(CCCC#Cc4cccc5c4CN(C4CCC(=O)NC4=O)C5=O)cc3F)cc2[nH]1 (stereo partly drawn) [Example 94, 4-(5-(2-(2,6-dioxopiperidin-3-yl)-1-oxoisoindolin-4-yl)pent-4-yn-1-yl)-2-fluoro-N-(2-((R)-1-methylpyrrolidin-2-yl)-1H-pyrrolo[3,2-c]pyridin-6-yl)benzamide] | A (Category A: A ≥ 75% degradation) | A (Category A: A ≥ 75% degradation) | ≤ 100 | A (Category A: A ≥ 75% degradation)

More lines, main results first:

MLLT1% Degradation @ 0.01 μM [1] | MLLT1% Degradation @ 0.1 μM [1] | IC50 [2] [nM] | Structure (SMILES) | MLLT1% Degradation @ 1 μM [1]
A (Category A: A ≥ 75% degradation) | A (Category A: A ≥ 75% degradation) | ≤ 100 | CN1CCC[C@@H]1c1cc2cnc(NC(=O)c3ccc(OCC#Cc4cccc5c4n(C)c(=O)n5C4CCC(=O)NC4=O)cc3)cc2[nH]1 (stereo partly drawn) [Example 66, 4-((3-(1-(2,6-dioxopiperidin-3-yl)-3-methyl-2-oxo-2,3-dihydro-1H-benzo[d]imidazol-4-yl)prop-2-yn-1-yl)oxy)-N-(2-((R)-1-methylpyrrolidin-2-yl)-1H-pyrrolo[3,2-c]pyridin-6-yl)benzamide] | A (Category A: A ≥ 75% degradation)
A (Category A: A ≥ 75% degradation) | A (Category A: A ≥ 75% degradation) | ≤ 100 | CN1CCC[C@@H]1c1cc2cnc(NC(=O)c3ccc(N4CCC(c5ccc(-c6cccc7c6CN(C6CCC(=O)NC6=O)C7=O)cc5)CC4)nc3)cc2[nH]1 (stereo partly drawn) [Example 67, 6-(4-(4-(2-(2,6-dioxopiperidin-3-yl)-1-oxoisoindolin-4-yl)phenyl)piperidin-1-yl)-N-(2-((R)-1-methylpyrrolidin-2-yl)-1H-pyrrolo[3,2-c]pyridin-6-yl)nicotinamide] | A (Category A: A ≥ 75% degradation)
A (Category A: A ≥ 75% degradation) | A (Category A: A ≥ 75% degradation) | ≤ 100 | CN1CCC[C@@H]1c1cc2cnc(NC(=O)c3ccc(OCCC4CCN(c5ccc6c(c5)C(=O)N(C5CCC(=O)NC5=O)C6=O)CC4)cc3)cc2[nH]1 (stereo partly drawn) [Example 83, 4-(2-(1-(2-(2,6-dioxopiperidin-3-yl)-1,3-dioxoisoindolin-5-yl)piperidin-4-yl)ethoxy)-N-(2-((R)-1-methylpyrrolidin-2-yl)-1H-pyrrolo[3,2-c]pyridin-6-yl)benzamide] | B (Category B: 50% ≤ B < 75% degradation)
A (Category A: A ≥ 75% degradation) | A (Category A: A ≥ 75% degradation) | ≤ 100 | CN(CCC#Cc1cccc2c1CN(C1CCC(=O)NC1=O)C2=O)c1ccc(C(=O)Nc2cc3[nH]c([C@H]4CCCN4C)cc3cn2)cc1 (stereo partly drawn) [Example 87, 4-((4-(2-(2,6-dioxopiperidin-3-yl)-1-oxoisoindolin-4-yl)but-3-yn-1-yl)(methyl)amino)-N-(2-((R)-1-methylpyrrolidin-2-yl)-1H-pyrrolo[3,2-c]pyridin-6-yl)benzamide] | B (Category B: 50% ≤ B < 75% degradation)

Reference: US20260191968A1, “PROTAC DEGRADERS OF MLLT1 AND/OR MLLT3” (DARK BLUE THERAPEUTICS LTD, priority 2024, published 2026)
